Consider 21 compounds from patent publication US12084472B2 (Ardelyx, Inc., priority 2015, dated 2024).

A value given as a limit tells only on which side of the number the result lay.

This test has as its target T1, human TGR5 (Homo sapiens, UniProt Q8TDU6).
T1 construct: expressed in transfected cells; host or cells: HEK293
T1 sequence (Q8TDU6 1-330): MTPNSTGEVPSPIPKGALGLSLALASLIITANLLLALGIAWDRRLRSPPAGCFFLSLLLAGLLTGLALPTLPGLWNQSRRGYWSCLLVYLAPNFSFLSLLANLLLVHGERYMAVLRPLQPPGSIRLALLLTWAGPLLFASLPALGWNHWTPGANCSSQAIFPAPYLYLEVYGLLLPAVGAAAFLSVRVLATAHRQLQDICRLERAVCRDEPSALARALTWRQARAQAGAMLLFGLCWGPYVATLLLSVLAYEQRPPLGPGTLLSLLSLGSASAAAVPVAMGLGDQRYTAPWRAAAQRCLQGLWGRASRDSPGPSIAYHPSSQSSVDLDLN
The test can be described thus: Cell-based TGR5 assay (cAMP generation, HTRF). The following applies: HEK293 cells stably transfected with human TGR5; cAMP by HTRF; 30 minutes at 37° C.; read-out: pEC50 Human TGR5 (converted). In a few lines: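 First, compounds in 3-fold serial dilution were placed in HBSS with 10 mM HEPES pH 7.4 and 0.5 mM IBMX. Next, human TGR5-expressing HEK293 cells were added and incubated 30 min at 37° C. Finally, cAMP was detected by HTRF and pEC50 derived by logistic fitting.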
As to `COCCN(C[C@H](O)[C@@H](O)[C@H](O)[C@H](O)CO)C(=O)CCCCc1cc(Cl)c(COC2(c3cnccc3-c3ccccc3OC3CC3)CC2)cc1Cl` [Compound I-127, 5-[2,5-dichloro-4-({1-[4-(2-cyclopropoxyphenyl)pyridin-3-yl]cyclopropoxy}methyl)phenyl]-N-(2-methoxyethyl)-N-[(2S,3R,4R,5R)-2,3,4,5,6-pentahydroxyhexyl]pentanamide], the EC50 was < 0.1 µM.

As to `CC(C)N(C[C@H](O)[C@@H](O)[C@H](O)[C@H](O)CO)C(=O)CCCCc1cc(Cl)c(COC2(c3cnccc3-c3ccccc3OC3CC3)CC2)cc1Cl` [Compound I-128, 5-[2,5-dichloro-4-({1-[4-(2-cyclopropoxyphenyl)pyridin-3-yl]cyclopropoxy}methyl)phenyl]-N-[(2S,3R,4R,5R)-2,3,4,5,6-pentahydroxyhexyl]-N-(propan-2-yl)pentanamide], the EC50 is < 0.1 µM.

`CCCN(C[C@H](O)[C@@H](O)[C@H](O)[C@H](O)CO)C(=O)CCCCc1cc(Cl)c(COC2(c3cnccc3-c3ccccc3OC3CC3)CC2)cc1Cl` [Compound I-129, 5-[2,5-dichloro-4-({1-[4-(2-cyclopropoxyphenyl)pyridin-3-yl]cyclopropoxy}methyl)phenyl]-N-[(2S,3R,4R,5R)-2,3,4,5,6-pentahydroxyhexyl]-N-propylpentanamide]: the EC50 was < 0.1 µM.

Take `CS(=O)(=O)CCN(C[C@H](O)[C@@H](O)[C@H](O)[C@H](O)CO)C(=O)CCCCc1cc(Cl)c(COC2(c3cnccc3-c3ccccc3OC3CC3)CC2)cc1Cl` [Compound I-130, 5-[2,5-dichloro-4-({1-[4-(2-cyclopropoxyphenyl)pyridin-3-yl]cyclopropoxy}methyl)phenyl]-N-(2-methanesulfonylethyl)-N-[(2S,3R,4R,5R)-2,3,4,5,6-pentahydroxyhexyl]pentanamide]: the EC50 is < 0.1 µM.

As for `O=C(CCCCc1cc(Cl)c(COC2(c3cnccc3-c3ccccc3OC3CC3)CC2)cc1Cl)N(C[C@H](O)[C@@H](O)[C@H](O)[C@H](O)CO)C1CCOCC1` [Compound I-131, 5-[2,5-dichloro-4-({1-[4-(2-cyclopropoxyphenyl)pyridin-3-yl]cyclopropoxy}methyl)phenyl]-N-(oxan-4-yl)-N-[(2S,3R,4R,5R)-2,3,4,5,6-pentahydroxyhexyl]pentanamide], the EC50 was < 0.1 µM.

In the case of `Cc1cc(COC2(c3cnccc3-c3ccccc3OC3CC3)CC2)c(Cl)cc1CCCCN(C)C(=O)[C@@H](O)[C@@H](O)[C@H](O)[C@@H](O)CO` [Compound I-132, (2S,3S,4R,5S)-N-{4-[5-chloro-4-({1-[4-(2-cyclopropoxyphenyl)pyridin-3-yl]cyclopropoxy}methyl)-2-methylphenyl]butyl}-2,3,4,5,6-pentahydroxy-N-methylhexanamide], the EC50 was < 0.1 µM.

Turning to `COc1ccccc1-c1ccncc1C1(NCc2cc(Cl)c(CCCCC(=O)NC[C@H](O)[C@@H](O)[C@H](O)[C@H](O)CO)cc2Cl)CC1` [Compound I-133, 5-{2,5-dichloro-4-[({1-[4-(2-methoxyphenyl)pyridin-3-yl]cyclopropyl}amino)methyl]phenyl}-N-[(2S,3R,4R,5R)-2,3,4,5,6-pentahydroxyhexyl]pentanamide], the EC50 is 0.126 to 1 µM.

For the compound `COc1ccccc1-c1ccncc1C1(NCc2cc(Cl)c(CCCCC(=O)N(C)C[C@H](O)[C@@H](O)[C@H](O)[C@H](O)CO)cc2Cl)CC1` [Compound I-134, 5-{2,5-dichloro-4-[({1-[4-(2-methoxyphenyl)pyridin-3-yl]cyclopropyl}amino)methyl]phenyl}-N-methyl-N-[(2S,3R,4R,5R)-2,3,4,5,6-pentahydroxyhexyl]pentanamide], the EC50 was 0.126 to 1 µM.

Take `O=C(CCCCc1cc(Cl)c(COC2(c3cnccc3-c3ccccc3OC3CC3)CC2)cc1Cl)NC[C@H](O)[C@@H](O)[C@H](O)[C@H](O)CO` [Compound I-135, 5-[2,5-dichloro-4-({1-[4-(2-cyclopropoxyphenyl)pyridin-3-yl]cyclopropoxy}methyl)phenyl]-N-[(2S,3R,4R,5R)-2,3,4,5,6-pentahydroxyhexyl]pentanamide]: the EC50 was < 0.1 µM.

As to `CN(C[C@H](O)[C@@H](O)[C@H](O)[C@H](O)CO)C(=O)CCCCc1cc(Cl)c(COC2(c3cnccc3-c3ccccc3OC3CC3)CC2)cc1Cl` [Compound I-136, 5-[2,5-dichloro-4-({1-[4-(2-cyclopropoxyphenyl)pyridin-3-yl]cyclopropoxy}methyl)phenyl]-N-methyl-N-[(2S,3R,4R,5R)-2,3,4,5,6-pentahydroxyhexyl]pentanamide], the EC50 is < 0.1 µM.

Consider `CN(C[C@H](O)[C@@H](O)[C@H](O)[C@H](O)CO)C(=O)CCCCc1cc(Cl)c(CNC2(c3cnccc3-c3ccccc3OC3CC3)CC2)cc1Cl` [Compound I-137, 5-{2,5-dichloro-4-[({1-[4-(2-cyclopropoxyphenyl)pyridin-3-yl]cyclopropyl}amino)methyl]phenyl}-N-methyl-N-[(2S,3R,4R,5R)-2,3,4,5,6-pentahydroxyhexyl]pentanamide], for which the EC50 is < 0.1 µM.

For the compound `O=C(NCCCCc1cc(Cl)c(CNC2(c3cnccc3-c3ccccc3OC3CC3)CC2)cc1Cl)NC[C@H](O)[C@@H](O)[C@H](O)[C@H](O)CO` [Compound I-138, 1-(4-{2,5-dichloro-4-[({1-[4-(2-cyclopropoxyphenyl)pyridin-3-yl]cyclopropyl}amino)methyl]phenyl}butyl)-3-[(2S,3R,4R,5R)-2,3,4,5,6-pentahydroxyhexyl]urea], the EC50 is < 0.1 µM.

As for `CC(CCCc1cc(Cl)c(COC2(c3cnccc3-c3ccccc3OC3CC3)CC2)cc1Cl)C(=O)NC[C@H](O)[C@@H](O)[C@H](O)[C@H](O)CO` (stereo partly drawn) [Compound I-139, 5-[2,5-dichloro-4-({1-[4-(2-cyclopropoxyphenyl)pyridin-3-yl]cyclopropoxy}methyl)phenyl]-2-methyl-N-[(2S,3R,4R,5R)-2,3,4,5,6-pentahydroxyhexyl]pentanamide], the EC50 is < 0.1 µM.

For the compound `CC(CCCc1cc(Cl)c(COC2(c3cnccc3-c3ccccc3OC3CC3)CC2)cc1Cl)C(=O)N(C)C[C@H](O)[C@@H](O)[C@H](O)[C@H](O)CO` (stereo partly drawn) [Compound I-140, 5-[2,5-dichloro-4-({1-[4-(2-cyclopropoxyphenyl)pyridin-3-yl]cyclopropoxy}methyl)phenyl]-N,2-dimethyl-N-[(2S,3R,4R,5R)-2,3,4,5,6-pentahydroxyhexyl]pentanamide], the EC50 is < 0.1 µM.

For the compound `O=C(NCCCCc1cc(Cl)c(COC2(c3cnccc3-c3ccccc3OC3CC3)CC2)cc1Cl)NC[C@H](O)[C@@H](O)[C@H](O)[C@H](O)CO` [Compound I-141, 1-{4-[2,5-dichloro-4-({1-[4-(2-cyclopropoxyphenyl)pyridin-3-yl]cyclopropoxy}methyl)phenyl]butyl}-3-[(2S,3R,4R,5R)-2,3,4,5,6-pentahydroxyhexyl]urea], the EC50 was < 0.1 µM.

Regarding `Cc1cc(CNC2(c3cnccc3-c3ccccc3OC3CC3)CC2)c(Cl)cc1CCCCC(=O)NC[C@H](O)[C@@H](O)[C@H](O)[C@H](O)CO` [Compound I-142, 5-{5-chloro-4-[({1-[4-(2-cyclopropoxyphenyl)pyridin-3-yl]cyclopropyl}amino)methyl]-2-methylphenyl}-N-[(2S,3R,4R,5R)-2,3,4,5,6-pentahydroxyhexyl]pentanamide], the EC50 is < 0.1 µM.

With `Cc1cc(CNC2(c3cnccc3-c3ccccc3OC3CC3)CC2)c(Cl)cc1CCCCC(=O)N(C)C[C@H](O)[C@@H](O)[C@H](O)[C@H](O)CO` [Compound I-143, 5-{5-chloro-4-[({1-[4-(2-cyclopropoxyphenyl)pyridin-3-yl]cyclopropyl}amino)methyl]-2-methylphenyl}-N-methyl-N-[(2S,3R,4R,5R)-2,3,4,5,6-pentahydroxyhexyl]pentanamide], the EC50 was < 0.1 µM.

With `CC(C)(CCCc1cc(Cl)c(COC2(c3cnccc3-c3ccccc3OC3CC3)CC2)cc1Cl)C(=O)NC[C@H](O)[C@@H](O)[C@H](O)[C@H](O)CO` [Compound I-144, 5-[2,5-dichloro-4-({1-[4-(2-cyclopropoxyphenyl)pyridin-3-yl]cyclopropoxy}methyl)phenyl]-2,2-dimethyl-N-[(2S,3R,4R,5R)-2,3,4,5,6-pentahydroxyhexyl]pentanamide], the EC50 is 0.126 to 1 µM.

Take `Cc1cc(COC2(c3cnccc3-c3ccccc3OC3CC3)CC2)c(Cl)cc1CCCCC(=O)NC[C@H](O)[C@@H](O)[C@H](O)[C@H](O)CO` [Compound I-145, 5-[5-chloro-4-({1-[4-(2-cyclopropoxyphenyl)pyridin-3-yl]cyclopropoxy}methyl)-2-methylphenyl]-N-[(2S,3R,4R,5R)-2,3,4,5,6-pentahydroxyhexyl]pentanamide]: the EC50 is < 0.1 µM.

For the compound `Cc1cc(COC2(c3cnccc3-c3ccccc3OC3CC3)CC2)c(Cl)cc1CCCCC(=O)N(C)C[C@H](O)[C@@H](O)[C@H](O)[C@H](O)CO` [Compound I-146, 5-[5-chloro-4-({1-[4-(2-cyclopropoxyphenyl)pyridin-3-yl]cyclopropoxy}methyl)-2-methylphenyl]-N-methyl-N-[(2S,3R,4R,5R)-2,3,4,5,6-pentahydroxyhexyl]pentanamide], the EC50 is < 0.1 µM.

`Cc1cc(CNC2(c3cnccc3-c3ccccc3OC3CC3)CC2)c(C)cc1CCCCC(=O)NC[C@H](O)[C@@H](O)[C@H](O)[C@H](O)CO` [Compound I-148, 5-{4-[({1-[4-(2-cyclopropoxyphenyl)pyridin-3-yl]cyclopropyl}amino)methyl]-2,5-dimethylphenyl}-N-[(2S,3R,4R,5R)-2,3,4,5,6-pentahydroxyhexyl]pentanamide]: the EC50 is 0.126 to 1 µM.
